Assay in all cases: Kinase profiling
Type in all cases: biochemical
Common to all, as to conditions: 0.1 or 1 μM inhibitor; mean of triplicate

The target of assay [1] is BRK (Homo sapiens, UniProt Q13882). The method in brief: (§1)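 Each kinase of a 140-member panel was assayed in vitro in the presence of 0.1 or 1 μM inhibitor, and activity was expressed as a percentage of DMSO control reactions. Triplicate reactions were averaged, reported ±S.D.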
Assay [2] has as its target BRSK2 (Homo sapiens, UniProt Q8IWQ3). The method in brief:
as §1

The target in assay [3] is CAMK1 (Homo sapiens, UniProt Q14012). The essentials: as §1
For assay [4], the target named is CDK2-Cyclin A (Homo sapiens, UniProt P24941). The essentials: as §1
For assay [5], the target named is CLK2 (Homo sapiens, UniProt P49760). The essentials: as §1
Assay [6] deals with DAPK1 (Homo sapiens, UniProt P53355). The essentials: as §1
Assay [7] has as its target DYRK2 (Homo sapiens, UniProt Q92630). The method in brief:
as §1

Assay [8] deals with DYRK3 (Homo sapiens, UniProt O43781). The method in brief:
as §1

Assay [9] has as its target EF2K (Homo sapiens, UniProt O00418).
Assay [10] addresses EPH-A2 (Homo sapiens, UniProt P29317). The method in brief:
as §1

In assay [11] the target is EPH-A4 (Homo sapiens, UniProt P54764). The method in brief: as §1
Assay [12] concerns the target EPH-B4 (Homo sapiens, UniProt P54760).
Assay [13] has as its target ERK1 (Homo sapiens, UniProt P27361). The essentials:
as §1

Assay [14] deals with ERK8 (Homo sapiens, UniProt Q8TD08). The essentials:
as §1

Assay [15] concerns the target GCK (Homo sapiens, UniProt Q12851).
The target in assay [16] is HIPK2 (Homo sapiens, UniProt Q9H2X6). The essentials:
as §1

Assay [17] deals with IKKβ (Homo sapiens, UniProt O14920). The essentials:
as §1

Assay [18] concerns the target JNK1 (Homo sapiens, UniProt P45983).
The target in assay [19] is JNK2 (Homo sapiens, UniProt P45984). The method in brief:
as §1

Assay [20] has as its target JNK3 (Homo sapiens, UniProt P53779). The essentials:
as §1

Assay [21] concerns the target Lck (Homo sapiens, UniProt P06239). The essentials:
as §1

Assay [22] has as its target MAPKAP-K2 (Homo sapiens, UniProt P49137). The method in brief:
as §1

Assay [23] deals with MARK2 (Homo sapiens, UniProt Q7KZI7). The essentials: as §1
Assay [24] concerns the target MNK2 (Homo sapiens, UniProt Q9HBH9). The essentials:
as §1

Assay [25] addresses MST2 (Homo sapiens, UniProt Q13188). The essentials: as §1
The target of assay [26] is MST3 (Homo sapiens, UniProt Q9Y6E0).
In assay [27] the target is PAK4 (Homo sapiens, UniProt O96013).
Assay [28] addresses PDGFRA (Homo sapiens, UniProt P16234). The method in brief: as §1
The target of assay [29] is PIM1 (Homo sapiens, UniProt P11309).
Assay [30] deals with PKCα (Homo sapiens, UniProt P17252). The essentials: as §1
For assay [31], the target named is PKD1 (Homo sapiens, UniProt Q15139). The essentials:
as §1

Assay [32] has as its target PRK2 (Homo sapiens, UniProt Q16513).
Assay [33] deals with SRPK1 (Homo sapiens, UniProt Q96SB4). The essentials:
as §1

The target in assay [34] is STK33 (Homo sapiens, UniProt Q9BYT3). The essentials:
as §1

Assay [35] concerns the target SYK (Homo sapiens, UniProt P43405). The essentials: as §1
Assay [36] deals with TBK1 (Homo sapiens, UniProt Q9UHD2). The essentials:
as §1

Assay [37] concerns the target TTBK2 (Homo sapiens, UniProt Q6IQ55). The essentials:
as §1

Assay [38] concerns the target TTK (Homo sapiens, UniProt P33981). The method in brief:
as §1

For assay [39], the target named is WNK1 (Homo sapiens, UniProt Q9H4A3). The essentials:
as §1

The target in assay [40] is YES1 (Homo sapiens, UniProt P07947). The method in brief:
as §1

The target of assay [41] is p38δ MAPK (Homo sapiens, UniProt O15264). The method in brief: as §1
For assay [42], the target named is ULK2 (Homo sapiens, UniProt Q8IYT8). The essentials: as §1

Consider 2 compounds from paper PMC3969223, “Characterization of WZ4003 and HTH-01-015 as selective inhibitors of the LKB1-tumour-suppressor-activated NUAK kinases” (Biochemical Journal, 2013).

Sequence of p38δ MAPK (O15264 whole entry): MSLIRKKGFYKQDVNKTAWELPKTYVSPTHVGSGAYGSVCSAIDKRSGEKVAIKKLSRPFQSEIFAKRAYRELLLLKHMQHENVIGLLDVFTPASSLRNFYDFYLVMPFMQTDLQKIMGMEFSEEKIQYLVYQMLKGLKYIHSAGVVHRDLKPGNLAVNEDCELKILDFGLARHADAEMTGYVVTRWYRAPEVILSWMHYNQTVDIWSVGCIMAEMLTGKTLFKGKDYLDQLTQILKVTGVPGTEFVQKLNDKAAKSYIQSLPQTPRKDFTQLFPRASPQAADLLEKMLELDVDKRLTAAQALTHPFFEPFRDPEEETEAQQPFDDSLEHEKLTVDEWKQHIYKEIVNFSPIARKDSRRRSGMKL
Sequence of MST2 (Q13188 whole entry): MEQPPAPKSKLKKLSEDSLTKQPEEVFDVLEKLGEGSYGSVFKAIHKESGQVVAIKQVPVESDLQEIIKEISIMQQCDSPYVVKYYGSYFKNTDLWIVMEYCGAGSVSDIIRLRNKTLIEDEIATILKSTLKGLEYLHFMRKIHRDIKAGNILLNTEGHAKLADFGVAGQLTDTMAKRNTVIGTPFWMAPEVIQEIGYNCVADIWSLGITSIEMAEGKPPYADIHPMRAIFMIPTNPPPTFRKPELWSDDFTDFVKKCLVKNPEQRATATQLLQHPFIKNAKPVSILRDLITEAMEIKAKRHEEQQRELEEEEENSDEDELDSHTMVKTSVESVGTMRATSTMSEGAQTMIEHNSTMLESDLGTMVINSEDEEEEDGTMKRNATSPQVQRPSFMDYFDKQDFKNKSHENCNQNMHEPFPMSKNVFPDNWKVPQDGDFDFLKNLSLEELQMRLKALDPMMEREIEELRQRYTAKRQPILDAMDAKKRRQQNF
Sequence of JNK1 (P45983 whole entry): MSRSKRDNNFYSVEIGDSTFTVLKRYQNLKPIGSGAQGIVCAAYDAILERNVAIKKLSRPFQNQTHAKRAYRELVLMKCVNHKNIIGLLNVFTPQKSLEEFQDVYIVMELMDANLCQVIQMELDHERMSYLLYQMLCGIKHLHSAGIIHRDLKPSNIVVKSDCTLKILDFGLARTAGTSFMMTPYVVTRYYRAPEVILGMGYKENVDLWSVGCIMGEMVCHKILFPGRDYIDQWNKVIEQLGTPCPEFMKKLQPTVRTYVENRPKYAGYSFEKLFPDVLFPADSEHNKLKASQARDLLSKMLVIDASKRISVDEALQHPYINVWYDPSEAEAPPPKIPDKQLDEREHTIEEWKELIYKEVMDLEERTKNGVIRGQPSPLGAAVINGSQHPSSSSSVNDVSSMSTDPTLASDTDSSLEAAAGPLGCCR
Sequence of ULK2 (Q8IYT8 whole entry): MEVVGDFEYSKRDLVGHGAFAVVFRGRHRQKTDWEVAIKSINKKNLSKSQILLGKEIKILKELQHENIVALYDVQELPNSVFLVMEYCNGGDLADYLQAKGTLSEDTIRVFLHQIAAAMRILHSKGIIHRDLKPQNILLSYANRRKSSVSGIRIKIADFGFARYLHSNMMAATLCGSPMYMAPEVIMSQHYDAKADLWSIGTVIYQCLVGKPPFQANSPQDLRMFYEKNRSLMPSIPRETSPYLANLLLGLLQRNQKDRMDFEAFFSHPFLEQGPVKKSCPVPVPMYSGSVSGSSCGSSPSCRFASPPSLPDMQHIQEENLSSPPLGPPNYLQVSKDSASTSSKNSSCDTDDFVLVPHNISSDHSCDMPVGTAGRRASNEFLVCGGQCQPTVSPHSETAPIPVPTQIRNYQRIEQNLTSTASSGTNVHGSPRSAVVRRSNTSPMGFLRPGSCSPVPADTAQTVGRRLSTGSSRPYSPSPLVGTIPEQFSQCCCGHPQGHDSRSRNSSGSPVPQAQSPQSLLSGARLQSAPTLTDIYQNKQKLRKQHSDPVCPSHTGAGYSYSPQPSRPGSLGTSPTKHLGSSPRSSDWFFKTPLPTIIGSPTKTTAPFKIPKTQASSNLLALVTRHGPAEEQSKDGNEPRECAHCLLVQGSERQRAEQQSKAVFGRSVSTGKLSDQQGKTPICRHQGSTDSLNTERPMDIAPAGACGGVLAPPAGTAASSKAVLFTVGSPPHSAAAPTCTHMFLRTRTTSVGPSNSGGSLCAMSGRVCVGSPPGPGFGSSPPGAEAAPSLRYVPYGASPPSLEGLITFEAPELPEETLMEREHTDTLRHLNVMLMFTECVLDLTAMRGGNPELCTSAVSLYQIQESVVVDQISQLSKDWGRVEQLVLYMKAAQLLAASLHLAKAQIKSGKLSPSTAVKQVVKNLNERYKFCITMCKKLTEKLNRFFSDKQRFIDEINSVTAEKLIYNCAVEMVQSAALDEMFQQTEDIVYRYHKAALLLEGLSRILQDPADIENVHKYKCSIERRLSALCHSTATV
Sequence of TTK (P33981 whole entry): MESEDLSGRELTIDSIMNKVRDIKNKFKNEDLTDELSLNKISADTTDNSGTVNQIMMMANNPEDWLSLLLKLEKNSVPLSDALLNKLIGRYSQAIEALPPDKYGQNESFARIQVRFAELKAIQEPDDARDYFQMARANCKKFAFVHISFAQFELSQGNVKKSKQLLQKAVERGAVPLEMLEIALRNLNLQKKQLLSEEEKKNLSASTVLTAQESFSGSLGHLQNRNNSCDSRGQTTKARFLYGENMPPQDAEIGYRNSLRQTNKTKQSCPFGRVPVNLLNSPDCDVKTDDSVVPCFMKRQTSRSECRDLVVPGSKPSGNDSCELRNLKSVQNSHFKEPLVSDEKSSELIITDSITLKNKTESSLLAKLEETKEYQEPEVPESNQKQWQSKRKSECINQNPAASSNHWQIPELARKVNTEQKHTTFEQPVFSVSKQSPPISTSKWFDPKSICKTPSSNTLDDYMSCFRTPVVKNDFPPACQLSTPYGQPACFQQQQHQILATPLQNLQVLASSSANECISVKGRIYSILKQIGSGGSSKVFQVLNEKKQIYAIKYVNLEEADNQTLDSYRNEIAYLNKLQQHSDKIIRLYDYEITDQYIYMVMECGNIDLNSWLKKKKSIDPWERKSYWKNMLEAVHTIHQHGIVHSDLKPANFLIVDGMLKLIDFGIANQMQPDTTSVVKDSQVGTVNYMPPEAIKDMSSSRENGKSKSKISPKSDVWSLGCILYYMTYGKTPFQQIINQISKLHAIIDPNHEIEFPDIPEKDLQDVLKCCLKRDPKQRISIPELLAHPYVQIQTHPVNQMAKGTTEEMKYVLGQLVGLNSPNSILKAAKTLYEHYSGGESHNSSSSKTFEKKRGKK
Sequence of Lck (P06239 whole entry): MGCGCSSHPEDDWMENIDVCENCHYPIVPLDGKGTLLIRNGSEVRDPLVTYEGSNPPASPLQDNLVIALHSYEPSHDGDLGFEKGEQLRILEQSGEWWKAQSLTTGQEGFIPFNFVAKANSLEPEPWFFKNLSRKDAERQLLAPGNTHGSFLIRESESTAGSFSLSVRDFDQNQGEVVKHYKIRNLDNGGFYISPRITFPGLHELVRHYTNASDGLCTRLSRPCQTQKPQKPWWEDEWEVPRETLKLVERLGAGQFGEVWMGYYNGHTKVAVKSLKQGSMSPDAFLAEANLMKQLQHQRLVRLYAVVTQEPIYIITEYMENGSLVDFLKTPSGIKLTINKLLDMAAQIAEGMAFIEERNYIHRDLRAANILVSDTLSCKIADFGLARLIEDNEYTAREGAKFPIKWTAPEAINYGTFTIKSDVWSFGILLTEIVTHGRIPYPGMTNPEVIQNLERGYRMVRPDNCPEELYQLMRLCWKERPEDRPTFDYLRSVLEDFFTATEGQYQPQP
Sequence of EPH-A4 (P54764 20-986): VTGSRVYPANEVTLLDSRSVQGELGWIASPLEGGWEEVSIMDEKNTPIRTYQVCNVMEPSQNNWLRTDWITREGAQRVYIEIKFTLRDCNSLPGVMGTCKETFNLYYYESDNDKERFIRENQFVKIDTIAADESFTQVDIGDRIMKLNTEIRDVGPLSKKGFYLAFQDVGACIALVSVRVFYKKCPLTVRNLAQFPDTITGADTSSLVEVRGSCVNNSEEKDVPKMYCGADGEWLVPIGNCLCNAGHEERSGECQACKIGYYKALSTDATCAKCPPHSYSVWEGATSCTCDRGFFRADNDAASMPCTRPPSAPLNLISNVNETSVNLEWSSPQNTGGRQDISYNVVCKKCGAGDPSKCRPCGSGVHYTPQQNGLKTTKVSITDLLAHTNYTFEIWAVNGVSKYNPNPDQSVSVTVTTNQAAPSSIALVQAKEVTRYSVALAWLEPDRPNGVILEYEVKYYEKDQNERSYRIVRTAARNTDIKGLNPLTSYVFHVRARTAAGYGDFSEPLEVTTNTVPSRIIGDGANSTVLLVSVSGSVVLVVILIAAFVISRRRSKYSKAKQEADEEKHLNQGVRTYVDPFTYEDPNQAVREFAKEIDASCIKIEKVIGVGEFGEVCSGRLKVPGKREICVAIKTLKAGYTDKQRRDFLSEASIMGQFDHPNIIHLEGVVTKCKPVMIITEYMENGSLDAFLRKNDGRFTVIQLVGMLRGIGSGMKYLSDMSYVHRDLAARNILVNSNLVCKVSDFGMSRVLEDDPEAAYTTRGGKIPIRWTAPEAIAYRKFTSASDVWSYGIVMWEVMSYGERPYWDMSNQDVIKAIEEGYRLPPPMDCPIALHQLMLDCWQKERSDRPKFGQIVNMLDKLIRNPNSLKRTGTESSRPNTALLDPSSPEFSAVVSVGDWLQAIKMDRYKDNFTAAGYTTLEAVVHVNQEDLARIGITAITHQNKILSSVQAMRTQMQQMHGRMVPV
Sequence of ERK1 (P27361 whole entry): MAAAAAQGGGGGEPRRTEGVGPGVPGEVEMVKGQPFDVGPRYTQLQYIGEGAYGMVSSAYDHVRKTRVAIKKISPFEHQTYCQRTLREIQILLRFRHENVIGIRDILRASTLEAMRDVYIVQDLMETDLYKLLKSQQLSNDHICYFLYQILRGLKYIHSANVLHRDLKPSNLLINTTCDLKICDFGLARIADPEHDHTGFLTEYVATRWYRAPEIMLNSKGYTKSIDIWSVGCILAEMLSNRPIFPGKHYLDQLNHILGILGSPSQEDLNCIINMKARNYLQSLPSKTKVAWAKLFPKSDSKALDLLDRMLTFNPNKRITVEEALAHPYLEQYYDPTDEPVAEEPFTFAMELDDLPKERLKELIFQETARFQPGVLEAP

With `Cc1nc(Nc2cnn(C3CCNCC3)c2)nc2c1N(C)C(=O)c1cc3ccccc3cc1N2C` [HTH-01-015], in [1], the “BRK activity, percentage of DMSO control” value was found to be 96 percentage. Moreover, the “BRSK2 activity, percentage of DMSO control” value in [2] is on record as 97 percentage. Moreover, in [3], the “CAMK1 activity, percentage of DMSO control” value is on record as 92 percentage. In addition, in [4], the “CDK2-Cyclin A activity, percentage of DMSO control” value was determined as 96 percentage. Also, the “CLK2 activity, percentage of DMSO control” value in assay [5] is given as 54 percentage. The “DAPK1 activity, percentage of DMSO control” value in assay [6] is recorded as 100 percentage. Moreover, the “DYRK2 activity, percentage of DMSO control” value in assay [7] stood at 113 percentage. The “DYRK3 activity, percentage of DMSO control” value in assay [8] is given as 98 percentage. The “EF2K activity, percentage of DMSO control” value in assay [9] is given as 103 percentage. Also, in [10], the “EPH-A2 activity, percentage of DMSO control” value amounted to 84 percentage. In addition, the “EPH-A4 activity, percentage of DMSO control” value in assay [11] stood at 94 percentage. Further, in assay [12], the “EPH-B4 activity, percentage of DMSO control” value is given as 102 percentage. Further, in [13], the “ERK1 activity, percentage of DMSO control” value is listed as 83 percentage. The “ERK8 activity, percentage of DMSO control” value in assay [14] is on record as 98 percentage. The “GCK activity, percentage of DMSO control” value in [15] is reported as 126 percentage. For the same compound, the “HIPK2 activity, percentage of DMSO control” value in assay [16] is recorded as 107 percentage. For the same compound, the “IKKβ activity, percentage of DMSO control” value in [17] is 81 percentage. Besides, the “JNK1 activity, percentage of DMSO control” value in assay [18] is listed as 100 percentage. Moreover, the “JNK2 activity, percentage of DMSO control” value in assay [19] amounted to 130 percentage. For the same compound, in assay [20], the “JNK3 activity, percentage of DMSO control” value was 101 percentage. The “Lck activity, percentage of DMSO control” value in [21] came out at 90 percentage. The “MAPKAP-K2 activity, percentage of DMSO control” value in assay [22] is on record as 118 percentage. The “MARK2 activity, percentage of DMSO control” value in assay [23] came to 99 percentage. In addition, the “MNK2 activity, percentage of DMSO control” value in [24] is listed as 106 percentage. Further, in assay [25], the “MST2 activity, percentage of DMSO control” value came out at 118 percentage. The “MST3 activity, percentage of DMSO control” value in assay [26] amounted to 111 percentage. For the same compound, the “PAK4 activity, percentage of DMSO control” value in assay [27] is listed as 110 percentage. Moreover, in [28], the “PDGFRA activity, percentage of DMSO control” value came to 109 percentage. For the same compound, the “PIM1 activity, percentage of DMSO control” value in [29] was found to be 92 percentage. Moreover, the “PKCα activity, percentage of DMSO control” value in assay [30] is on record as 117 percentage. Moreover, the “PKD1 activity, percentage of DMSO control” value in [31] stood at 94 percentage. Further, the “PRK2 activity, percentage of DMSO control” value in assay [32] is listed as 112 percentage. Besides, in assay [33], the “SRPK1 activity, percentage of DMSO control” value is 103 percentage. Besides, in [34], the “STK33 activity, percentage of DMSO control” value was 93 percentage. Further, the “SYK activity, percentage of DMSO control” value in assay [35] is recorded as 125 percentage. For the same compound, the “TBK1 activity, percentage of DMSO control” value in assay [36] stood at 112 percentage. Further, the “TTBK2 activity, percentage of DMSO control” value in assay [37] was found to be 102 percentage. The “TTK activity, percentage of DMSO control” value in [38] came to 118 percentage. Further, in assay [39], the “WNK1 activity, percentage of DMSO control” value was 99 percentage. Further, the “YES1 activity, percentage of DMSO control” value in assay [40] stood at 76 percentage. In [41], the “p38δ MAPK activity, percentage of DMSO control” value turned out to be 113 percentage.
`CCC(=O)Nc1cccc(Oc2nc(Nc3ccc(N4CCN(C)CC4)cc3OC)ncc2Cl)c1` [WZ4003]: the “ULK2 activity, percentage of DMSO control” value in [42] worked out at 37 percentage.
